Columns and labels:
[1] = test system: methicillin-resistant Staphylococcus aureus (MRSA); assay: MRSA infection in SCIDbgMN mice inoculated with spleen mononuclear cells of IFN-γ knockout mice, survival; format: in vivo; conditions: 10 days
Method: Spleen mononuclear cells originated from IFN-γ knockout mice (5×10^6 cells/ml) were inoculated into SCIDbgMN mice (SCID-beige mice deficient in macrophage and neutrophil functions). A 20 mg/kg dose of glycyrrhizin was administered intraperitoneally immediately after inoculation. 2 hours later, the animals were infected through the tail vein with methicillin-resistant Staphylococcus aureus (MRSA) at a level of 5 LD50. Furthermore, a control group was infected with an equal amount of MRSA following administration of physiological saline.
Spleen mononuclear cells originated from IFN-γ knockout mice (5×10^6 cells/ml) were inoculated into SCIDbgMN mice. A 20 mg/kg dose of glycyrrhizin was administered intraperitoneally immediately after inoculation. 2 hours later, the animals were infected through the tail vein with methicillin-resistant Staphylococcus aureus (MRSA) at a level of 5 LD50. 10 μg/ml of anti-RANTES monoclonal antibody was administered subcutaneously 2 hours before, 12 hours after and 24 hours after administration of glycyrrhizin, while an equal amount of Ig was administered subcutaneously to a control group.

[2] = test system: HIV; conditions: 150 to 225 mg (6 to 9 tablets) per day, asymptomatic carriers (AC); cited from earlier work
[3] = test system: septicemia induced by cecal ligation and puncture (CLP); assay: Septicemia model (cecal ligation and puncture) in IFN-γ knockout mice, survival; format: in vivo; conditions: 7 days
Method: Glycyrrhizin was administered intraperitoneally to IFN-γ knockout mice at 20 mg/kg, and septicemia was induced by cecal ligation and puncture (CLP) 2 hours later.
Glycyrrhizin was administered intraperitoneally to IFN-γ knockout mice at 20 mg/kg, and septicemia was induced by CLP 2 hours later. 10 μg/ml of anti-RANTES monoclonal antibody were administered subcutaneously 2 hours before, 12 hours after and 24 hours after administration of glycyrrhizin, while an equal amount of Ig was administered subcutaneously to a control group.

[4] = test system: HIV; conditions: reported in recent years; cited from earlier work
[5] = test system: mononuclear cells originated from mouse spleen; assay: RANTES induction in mononuclear cells originated from mouse spleen; format: cell-based
Source text: The above results were able to be confirmed not only in humans, but also in experiments using mononuclear cells originated from mouse spleen.

[6] = test system: IL-12Rβ2 mRNA; assay: Th1 cell induction: IL-12Rβ2 mRNA expression by RT-PCR in peripheral mononuclear cells; format: cell-based, human; conditions: 7 days, FIG. 5
Method: Peripheral blood was collected from healthy subjects and peripheral mononuclear cells were isolated with Ficoll-Hypaque. 1×10^6 cells/ml of peripheral mononuclear cells were cultured for 7 days in medium containing IL-2 (10 U/ml) and anti-IFN-γ monoclonal antibody (10 μg/ml) in the presence of 100 μg/ml of glycyrrhizin, or glycyrrhizin and anti-RANTES monoclonal antibody (10 μg/ml). After culturing, RNA was extracted from the cells, and the expression of IL-12Rβ2 mRNA, a marker for Th1 cells, was measured by RT-PCR. […] In other words, IFN-γ is not involved in the reaction used in this experiment. Furthermore, the control in the drawing indicates the degree of expression of IL-12Rβ2 mRNA in mononuclear cells when cultured without the addition of glycyrrhizin.

[7] = test system: peripheral mononuclear cells from AIDS patients; assay: RANTES induction in peripheral mononuclear cells from AIDS patients; format: cell-based, human; conditions: 100 μg/ml, 24 hours, cells from 3 AIDS patients, FIG. 4
Method: Peripheral blood was collected from 3 AIDS patients (CD4 count: 215-418 cells/μl, viral load: 80,000-370,000 copies/ml) and peripheral mononuclear cells were isolated with Ficoll-Hypaque. 1×10^6 cells/ml of peripheral mononuclear cells were stimulated for 24 hours with 100 μg/ml of glycyrrhizin. The amount of RANTES present in the culture supernatant was measured with the Human RANTES/CCL5 Quantikine Immunoassay Kit (R&D Systems). Furthermore, the control in the drawing indicates the amount of RANTES in culture supernatant of peripheral mononuclear cells not treated with glycyrrhizin.

[8] = test system: peripheral mononuclear cells; assay: RANTES induction in peripheral mononuclear cells from healthy individuals (Quantikine immunoassay of culture supernatant); format: cell-based, human
Method: Peripheral blood was collected from healthy individuals and peripheral mononuclear cells were isolated with Ficoll-Hypaque. RPMI1640 medium containing 10% FCS and antibiotics (penicillin and streptomycin) was used for culturing. After stimulating 1×10^6 cells/ml of peripheral mononuclear cells with 100 μg/ml of sodium olean-3β-hydroxy-11-oxo-12-ene-30-ate, disodium olean-9(11),12-diene-3β,30-diol-3β,30-O-dihemiphthalate, disodium olean-11,13 (18)-diene-3β,30-diol-3β,30-O-dihemiphthalate, disodium olean-3β-hydroxy-11,13(18)-diene-30-ate-3β-O-hemiphthalate, disodium olean-3β-hydroxy-11-oxo-12-ene-30-ate-3β-O-hemiphthalate, or monoammonium glycyrrhizinate for 24 hours, the amount of RANTES in the culture supernatant was measured with a Human RANTES/CCL5 Quantikine Immunoassay Kit (R&D Systems). Furthermore, the control in the drawing indicates the amount of RANTES in culture supernatant when peripheral mononuclear cells were treated with medium only.
Peripheral blood was collected from healthy subjects and peripheral mononuclear cells were isolated with Ficoll-Hypaque. 1×10^6 cells/ml of peripheral mononuclear cells were stimulated with 100 μg/ml of monoammonium glycyrrhizinate (monoammonium glycyrrhizinate will hereinafter be referred to as glycyrrhizin). Taking the time at which glycyrrhizin was added to be 0 hours, the amount of RANTES present in the culture supernatant was measured with the Human RANTES/CCL5 Quantikine Immunoassay Kit (R&D Systems) 12, 24, 48 and 72 hours later. Furthermore, the control in the drawing indicates the amount of RANTES in culture supernatant of peripheral mononuclear cells not treated with glycyrrhizin.
Peripheral blood was collected from healthy subjects and peripheral mononuclear cells were isolated with Ficoll-Hypaque. 1×10^6 cells/ml of peripheral mononuclear cells were stimulated for 24 hours with 0.1-100 μg/ml of glycyrrhizin. The amount of RANTES present in the culture supernatant was measured with the Human RANTES/CCL5 Quantikine Immunoassay Kit (R&D Systems).

| Structure (SMILES) | mortality rate after MRSA infection with anti-RANTES monoclonal antibody ([1]; 20 mg/kg i.p. plus anti-RANTES monoclonal antibody subcutaneously, FIG. 9) | survival rate after MRSA infection ([1]; 20 mg/kg intraperitoneally 2 hours before MRSA 5 LD50 via tail vein, FIG. 8) [%] | survival without the onset of AIDS [2] [years] | mortality rate after septicemic infection with anti-RANTES monoclonal antibody ([3]; 20 mg/kg i.p. plus anti-RANTES monoclonal antibody subcutaneously, FIG. 7) | survival rate after septicemic infection ([3]; 20 mg/kg intraperitoneally 2 hours before CLP, FIG. 6) [%] | intracellular growth of HIV [4] | RANTES induction confirmed in mouse cells [5] | expression of IL-12Rβ2 mRNA (Th1 marker) with anti-RANTES monoclonal antibody ([6]; 100 μg/ml glycyrrhizin plus anti-RANTES monoclonal antibody 10 μg/ml) | expression of IL-12Rβ2 mRNA (Th1 marker) ([6]; 100 μg/ml, with IL-2 and anti-IFN-γ monoclonal antibody) | RANTES induction [7] | amount of RANTES in the culture supernatant ([8]; 100 μg/ml compound, 24 hours, 1×10^6 cells/ml, FIG. 1) [ng/mL] | production of RANTES over time ([8]; 100 μg/ml, 12, 24, 48 and 72 hours, FIG. 2) | RANTES induction versus concentration ([8]; 0.1-100 μg/ml tested, 24 hours, dose dependent within 1-100 μg/ml, FIG. 3) | amount of RANTES induced compared with monoammonium glycyrrhizinate ([8]; 100 μg/ml compound, 24 hours, FIG. 1) |
| --- | --- | --- | --- | --- | --- | --- | --- | --- | --- | --- | --- | --- | --- | --- |
| CC1(C)[C@@H](O[C@H]2O[C@H](C(=O)O)[C@@H](O)[C@H](O)[C@H]2O[C@@H]2O[C@H](C(=O)O)[C@@H](O)[C@H](O)[C@H]2O)CC[C@]2(C)[C@H]3C(=O)C=C4[C@@H]5C[C@@](C)(C(=O)O)CC[C@]5(C)CC[C@@]4(C)[C@]3(C)CC[C@@H]12.N [GR, monoammonium glycyrrhizinate] | increased to the same level as the control group | 75 | ≥ 10 | increased to the same level as the control group | 80 | inhibits the intracellular growth of HIV | confirmed | no longer demonstrated its expression | increase in the expression of IL-12Rβ2 mRNA | RANTES was induced | 3 | increased with the passage of culturing time | dose dependent manner |  |
| CC1(COC(=O)c2ccccc2C(=O)[O-])CCC2(C)CCC3(C)C(=C2C1)C=CC1C2(C)CCC(OC(=O)c4ccccc4C(=O)[O-])C(C)(C)C2CCC13C.[Na+].[Na+] (stereo not drawn) [MUN-014, disodium olean-11,13(18)-diene-3β,30-diol-3β,30-O-dihemiphthalate] |  |  |  |  |  |  |  |  |  |  |  |  |  | nearly equal amount |

From patent US20040142882A1, “Use of glycyrrhizin and its derivatives as RANTES inducers” (priority 2002, published 2004)
